According to ChEMBL document CHEMBL1201862, “PubChem BioAssay data set” (2004):
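Cultured in 96-well plates, cells were exposed to test compound for 48 hours across five concentrations. GI50 is the concentration that inhibits growth by half.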 Active and inactive are the calls of the source. Cut-off read from the data, not from the text of the source: active = GI50 up to about 1.1 µM and inactive = higher.

Columns and labels:
Assay in all cases: growth of human tumour cells (NCI), 48 h
786-0 = tested on: 786-0
EKVX = tested on: EKVX
HCT-116 = tested on: HCT-116
HOP-62 = tested on: HOP-62
HOP-92 = tested on: HOP-92
K562 = tested on: K562
KM12 = tested on: KM12
Malme-3M = tested on: Malme-3M
NCI-H460 = tested on: NCI-H460
NCI-H522 = tested on: NCI-H522
OVCAR-4 = tested on: OVCAR-4
SF-295 = tested on: SF-295
SK-MEL-2 = tested on: SK-MEL-2
SNB-19 = tested on: SNB-19
LOX IMVI = tested on: LOX IMVI
A498 = tested on: A498

Measured: GI50

CC(C)(C)CC(C)(C)c1cc2c(O)c(c1)Cc1cc(C(C)(C)CC(C)(C)C)cc(c1O)Cc1cc(C(C)(C)CC(C)(C)C)cc(c1O)Cc1cc(C(C)(C)CC(C)(C)C)cc(c1O)C2
inactive: 786-0 > 100 µM | EKVX > 100 µM | HCT-116 > 100 µM | HOP-62 > 100 µM | HOP-92 > 100 µM | K562 > 100 µM | KM12 > 100 µM | Malme-3M > 100 µM | NCI-H460 > 100 µM | NCI-H522 > 100 µM | OVCAR-4 > 100 µM | SF-295 > 100 µM | SK-MEL-2 > 100 µM | SNB-19 > 100 µM

CCCCC(/C=N/NC(=N)N)CC.Cc1cc(O)c(C(C)C)cc1S(=O)(=O)O
inactive: 786-0 > 100 µM | EKVX 30.8 µM | HCT-116 43.3 µM | HOP-62 39.7 µM | K562 26.5 µM | KM12 52.4 µM | LOX IMVI 57.1 µM | Malme-3M 43.9 µM | NCI-H460 46.6 µM | NCI-H522 > 100 µM | SF-295 42.5 µM | SNB-19 60 µM

Clc1ccc(C2N3CCCCC3[C@@H]3c4[nH]c5ccccc5c4CCN23)cc1 (stereo partly specified)
inactive: 786-0 > 100 µM | A498 94.4 µM | EKVX 81.7 µM | HCT-116 30.2 µM | HOP-62 > 100 µM | HOP-92 > 100 µM | K562 38 µM | Malme-3M 19.7 µM | NCI-H460 61.8 µM | OVCAR-4 56.1 µM | SF-295 67.1 µM | SK-MEL-2 34 µM | SNB-19 93.3 µM

COc1cc(/C=C/c2cccnc2)cc(OC)c1OC
inactive: 786-0 > 100 µM | A498 > 100 µM | EKVX 66.1 µM | HCT-116 > 100 µM | HOP-62 70.6 µM | HOP-92 31.8 µM | K562 > 100 µM | KM12 > 100 µM | LOX IMVI > 100 µM | Malme-3M > 100 µM | NCI-H460 > 100 µM | NCI-H522 53.5 µM | OVCAR-4 > 100 µM | SF-295 > 100 µM | SNB-19 > 100 µM

CC(NC(=O)c1ccccc1)C(=O)N(Cc1ccccc1)Cc1ccccc1 (stereo unspecified)
inactive: 786-0 37.6 µM | A498 25.6 µM | HCT-116 25.2 µM | HOP-62 25.1 µM | HOP-92 23.6 µM | K562 15.3 µM | KM12 26.6 µM | LOX IMVI 22.1 µM | Malme-3M 24.5 µM | NCI-H460 27.4 µM | NCI-H522 23.7 µM | OVCAR-4 31.2 µM | SF-295 27.4 µM | SK-MEL-2 20.7 µM | SNB-19 36.1 µM

COC1(OC)CC2OC1C1N=NN(C(=O)OC(C)(C)C)C21 (stereo unspecified)
inactive: 786-0 > 100 µM | A498 > 100 µM | HOP-62 > 100 µM | HOP-92 > 100 µM | K562 36 µM | KM12 > 100 µM | LOX IMVI > 100 µM | Malme-3M > 100 µM | NCI-H460 > 100 µM | OVCAR-4 > 100 µM | SF-295 > 100 µM | SK-MEL-2 > 100 µM

NNC(=S)N/N=C(\CC1OC(=O)c2ccccc21)c1ccccc1O (stereo unspecified)
inactive: 786-0 43.3 µM | A498 33.7 µM | EKVX 78.7 µM | HCT-116 36.6 µM | HOP-62 33 µM | HOP-92 70.8 µM | K562 60.5 µM | KM12 40.4 µM | LOX IMVI 17.6 µM | Malme-3M 30.4 µM | NCI-H460 40.8 µM | NCI-H522 22.8 µM | OVCAR-4 88.7 µM | SF-295 20.3 µM | SK-MEL-2 26.8 µM | SNB-19 32.4 µM

C1CCN(c2nc(=[N+]3CCCCC3)ss2)CC1
inactive: 786-0 > 100 µM | A498 > 100 µM | EKVX > 100 µM | HCT-116 > 100 µM | HOP-62 > 100 µM | HOP-92 > 100 µM | K562 90.6 µM | KM12 9.18 µM | LOX IMVI 41.1 µM | Malme-3M > 100 µM | NCI-H460 48.8 µM | NCI-H522 > 100 µM | OVCAR-4 > 100 µM | SF-295 > 100 µM | SK-MEL-2 > 100 µM | SNB-19 > 100 µM

CCOC(=N)CC(=O)Nc1ccccc1
inactive: 786-0 > 46.5 µM | A498 > 46.5 µM | EKVX > 100 µM | HCT-116 > 46.5 µM | HOP-62 > 46.5 µM | HOP-92 > 10 µM | K562 22.1 µM | KM12 > 46.5 µM | LOX IMVI 47.5 µM | Malme-3M > 46.5 µM | NCI-H460 > 46.5 µM | NCI-H522 > 100 µM | OVCAR-4 34.5 µM | SF-295 > 100 µM | SK-MEL-2 > 31.6 µM | SNB-19 > 100 µM

Clc1cccc(C2SCc3nc4ccccc4n32)c1Cl (stereo unspecified)
inactive: 786-0 17.7 µM | A498 15.2 µM | EKVX 16.2 µM | HCT-116 18.6 µM | HOP-62 17.4 µM | HOP-92 15.2 µM | K562 12.8 µM | NCI-H460 18.5 µM | NCI-H522 16.6 µM | OVCAR-4 13.9 µM | SF-295 16.5 µM | SK-MEL-2 16.7 µM | SNB-19 18 µM

Nc1nc(O)c2nc(N)n(Cc3ccccc3)c2n1
inactive: 786-0 > 100 µM | A498 > 100 µM | EKVX > 100 µM | HCT-116 > 100 µM | HOP-62 > 100 µM | HOP-92 > 100 µM | K562 > 100 µM | KM12 > 100 µM | LOX IMVI > 100 µM | Malme-3M > 100 µM | NCI-H460 > 100 µM | NCI-H522 > 100 µM | OVCAR-4 > 100 µM | SF-295 > 100 µM | SK-MEL-2 > 100 µM | SNB-19 > 100 µM

CCOC(=O)C1C(=O)C(C(=O)OCC)C(c2ccccc2)N(C)C1c1ccccc1 (stereo unspecified)
inactive: 786-0 > 100 µM | A498 > 100 µM | EKVX > 100 µM | HCT-116 58.2 µM | HOP-62 > 100 µM | HOP-92 > 100 µM | K562 > 100 µM | KM12 > 100 µM | LOX IMVI 33.9 µM | Malme-3M > 100 µM | NCI-H460 > 100 µM | NCI-H522 49.9 µM | OVCAR-4 > 100 µM | SF-295 > 100 µM | SK-MEL-2 > 100 µM | SNB-19 > 100 µM

C/C=C/COC(=O)CO[N+](=O)[O-]
inactive: 786-0 > 100 µM | EKVX > 100 µM | HCT-116 > 100 µM | HOP-62 > 100 µM | HOP-92 > 100 µM | K562 > 100 µM | KM12 > 100 µM | LOX IMVI > 100 µM | Malme-3M > 100 µM | NCI-H460 > 100 µM | NCI-H522 > 100 µM | OVCAR-4 > 100 µM | SF-295 > 100 µM | SK-MEL-2 > 100 µM | SNB-19 > 100 µM

Cc1ccccc1NC(=O)CC1C(=O)Nc2ccccc2[S+]1[O-] (stereo unspecified)
inactive: 786-0 49.7 µM | A498 > 100 µM | EKVX > 100 µM | HCT-116 > 100 µM | HOP-92 52.7 µM | K562 > 100 µM | LOX IMVI > 100 µM | Malme-3M > 100 µM | NCI-H460 > 100 µM | NCI-H522 > 100 µM | OVCAR-4 71.6 µM | SF-295 > 100 µM | SK-MEL-2 > 100 µM | SNB-19 > 100 µM

CCn1c2ccccc2c2ccc3c(c21)C(=O)c1ccccc1C3=O
inactive: 786-0 > 100 µM | A498 > 100 µM | EKVX 44.8 µM | HCT-116 > 100 µM | HOP-62 > 100 µM | HOP-92 82.2 µM | K562 > 100 µM | Malme-3M 81.1 µM | NCI-H522 > 100 µM | OVCAR-4 > 100 µM | SF-295 91.2 µM | SNB-19 > 100 µM

CC(=O)OC1C/C(C)=C/CCC(C)/C=C/C2(C)CCC(C(C)(C)O)C12 (stereo unspecified)
inactive: 786-0 65 µM | A498 > 100 µM | EKVX 63.2 µM | HCT-116 26.2 µM | HOP-62 88.1 µM | HOP-92 18.5 µM | K562 36.7 µM | KM12 51.2 µM | LOX IMVI 39.1 µM | Malme-3M 63 µM | NCI-H460 39.2 µM | OVCAR-4 49.8 µM | SF-295 80.7 µM | SK-MEL-2 34.4 µM | SNB-19 > 100 µM

Nc1nc2c3nc(Nc4ccccc4)sc3nc(=O)n2c2sc(Nc3ccccc3)nc12
inactive: 786-0 > 100 µM | A498 > 100 µM | EKVX > 100 µM | HCT-116 > 100 µM | HOP-62 > 100 µM | HOP-92 > 100 µM | K562 > 100 µM | Malme-3M > 100 µM | NCI-H522 > 100 µM | OVCAR-4 > 100 µM | SF-295 > 100 µM | SNB-19 > 100 µM

CCOc1ccc(/N=N/c2c(-c3ccccc3)nn(C(=O)CC(=O)Nc3ccccc3Cl)c2-c2ccccc2)cc1
inactive: 786-0 > 100 µM | EKVX 44 µM | HCT-116 35.6 µM | HOP-62 93.8 µM | HOP-92 48.8 µM | K562 30.2 µM | KM12 46.1 µM | LOX IMVI 42.2 µM | Malme-3M > 100 µM | NCI-H460 46.5 µM | NCI-H522 78 µM | OVCAR-4 47.4 µM | SF-295 68.5 µM | SK-MEL-2 > 100 µM | SNB-19 > 100 µM

O=CC1=CCCN(CCc2c[nH]c3ccccc23)C1
inactive: 786-0 62.2 µM | EKVX 84.7 µM | HCT-116 28.2 µM | HOP-62 52.6 µM | HOP-92 64.9 µM | K562 23.6 µM | KM12 56.9 µM | LOX IMVI 6.47 µM | Malme-3M 64.7 µM | NCI-H460 54.6 µM | NCI-H522 69.3 µM | SF-295 57.3 µM | SK-MEL-2 63.5 µM | SNB-19 45.2 µM
